One data set concerns human Notch 3. In words: Notch-CBF1 Transactivation Assay (Notch 3). The format is cell-based. The settings on record: HeLa cells transfected with truncated Notch 3 and CBF1 luciferase reporter; 18 hours incubation. From the text: Notch-CBF1 Transactivation Assay
The Notch-CBF1 (C-promoter binding factor I) cell based transactivation assay is based on the ability of the released Notch intracellular domain fragments (NICDs) to function as transcription factors in conjunction with CBF1 and other nuclear factors. Luciferase assays were used to measure the antagonism of Notch-CBF1 transcriptional activity. HeLa cervical cancer cells are transiently co-transfected with pCDNA3.1/Hygro plasmids containing truncated Notch 1, Notch 2, Notch 3, or Notch 4 receptors and a PGL3 luciferase reporter vector containing 4 copies of CBF1 binding site. The cells were then tested for Notch-CBF1 activity in the absence or presence of test compounds. HeLa cells, maintained in DMEM (high glucose with HEPES), 1× glutamine/penicillin/streptomycin and 10% Fetal Bovine serum, were transiently transfected in a T175 Flask (4.5×10^6 cells/flask) using the Monster Transfection Kit (Minis #MIR2906) according to manufacturers specifications. Table 1 denotes respective DNA quantity for the transfections.
Six hours post-transfection, cells were trypsinized and plated into a 384-well black Poly-D-lysine coated tissue culture plate at a density of 5×10^3 cells/well in 95 μL assay media (DMEM (high glucose with HEPES), 1× glutamine/penicillin/streptomycin, 0.0125% BSA, 1× non-essential amino acids). Assay media (5 μL) containing test compounds in final concentrations ranging from 5 μM to 8.4×10^−5 μM (3 fold serial dilutions) were added to the cells and the cell plates were then incubated for 18 hours at 37° C. and 5% CO2. Control wells contained DMSO vehicle (total counts) or 0.5 μM of an in-house small molecule inhibitor (background counts). Duplicates were used for each sample. Luciferase activity was measured after a 20-minute incubation with 50 μl STEADY-GLO® luciferase reagents according to manufacturer's specifications (Promega, Cat. #E2550) and analyzed by Envision plate reader (PerkinElmer, Boston, Mass.).
The antagonist effect of compounds was expressed as 100×[1−(average sample−average background)/(average total−average background)] where sample is the luciferase activity in the presence of test compound, background is equal to the luciferase activity in the presence of the small molecule inhibitor control and the total is signal induced in DMSO wells.

Another data set relates to TALL1. In words: Human Tumor Xenograft Models in Mice, TALL1. The format is in vivo. The settings on record: 60 mg/kg, QDx10, oral administration; LCK = Log Cell Kill. The text has this: Human Tumor Xenograft Models in Mice
All rodents were obtained from Harlan Sprague Dawley Co. (Indianapolis, Ind.), and maintained in an ammonia-free environment in a defined and pathogen—free colony. All mice were quarantined approximately 1 week prior to their use for tumor propagation and drug efficacy testing. Mice were fed food and water ad libitum. The animal care program of Bristol-Myers Squibb Pharmaceutical Research Institute is fully accredited by the American Association for Accreditation of Laboratory Animal Care (AAALAC). All experiments were performed in accordance with Bristol-Myers Squibb (BMS) animal test methods and guidelines. […]
The required numbers of animals needed to detect a meaningful response were pooled at the start of the experiment and each was given a subcutaneous implant of a tumor fragment (˜20 mg) with a 13-gauge trocar. Tumors were allowed to grow to the pre-determined size window (tumors outside the range were excluded) and animals were evenly distributed to various treatment and control groups. […]
Tumor response was determined by measurement of tumors with a caliper twice a week, until the tumors reached a predetermined “target” size of 0.5 gm or 1 gm depending on the tumor type. […]
Tumor response criteria are expressed in terms of tumor growth inhibition (% TGI). […] For this purpose, the tumor weight of a group is expressed as […] tumor weight (MTW). […]
A general note: Xenograft models place foreign cells or tissue in a host animal.

Data set [1] in a line: High Throughput Metabolic Stability Panel, human microsomes. The settings on record: 10 minute incubation, 0.5 μM, control compound expected range. The format is in vitro ADME. The protocol:
(§1) High Throughput (HT) Metabolic Stability Panel
(§2) The metabolic stability assay evaluated CYP-mediated metabolic stability in vitro using human, rat, mouse, dog, and/or monkey microsomes after a ten-minute incubation. Each compound was tested in duplicate.
(§3) Test compound was received as a 3.5 mM stock solution in 100 percent DMSO. The test compound was diluted to create a 50 μM acetonitrile (ACN) solution containing 1.4% DMSO, which was then used as a 100× stock for incubation with microsomes. Each compound was tested in duplicate separately in each of three species in the Metabolic Stability-Human, Rat, and Mouse assay suite or as individual species in the Metabolic Stability-Dog or Metabolic Stability-Monkey suites. Compound, NADPH, and liver microsome solutions were combined for incubation in three steps:
(§4) 1. 152 μl of liver microsome suspension, protein concentration of 1.1 mg/ml in 100 mM NaPi, pH 7.4, 5 mM MgCl2 buffer, was pre-warmed at 37° C.
(§5) 3. The reaction was initiated by the addition of 17 μl of pre-warmed 10 mM NADPH solution in 100 mM NaPi, pH 7.4.
(§6) The reaction components were mixed well, and 75 μl of the reaction mixture was immediately transferred into 150 μl quench/stop solution (zero-time point, T0). Reactions were incubated at 37° C. for 10 minutes and then an additional 75 μl aliquot was transferred into 150 μl quench solution. […]

Data set [2] in a line: High Throughput Metabolic Stability Panel, rat microsomes. The note with it: 10 minute incubation, 0.5 μM, control compound expected range. The format is in vitro ADME. The protocol:
as §1, §2, §3, §4, §5, §6

A short description of data set [3]: High Throughput Metabolic Stability Panel, mouse microsomes. The format is in vitro ADME. The settings on record: 10 minute incubation, 0.5 μM, control compound expected range. The method, then:
as §1, §2, §3, §4, §5, §6

Data set [4] in a line: High Throughput Metabolic Stability Panel, dog microsomes. The format is in vitro ADME. The settings on record: 10 minute incubation, 0.5 μM, control compound expected range. The protocol:
as §1, §2, §3, §4, §5, §6

Data set [5] is described as follows: High Throughput Metabolic Stability Panel, monkey microsomes. The format is in vitro ADME. The note with it: 10 minute incubation, 0.5 μM, control compound expected range. The protocol:
as §1, §2, §3, §4, §5, §6

As a reminder, the IC50 is the concentration that gives 50% inhibition. In the data set with human Notch 3, `CCC[C@H](C(N)=O)[C@@H](CCC(F)(F)F)C(=O)N[C@H]1N=C(c2ccccc2)c2cccc3c2N(CCO3)C1=O` [Example 7, (2R,3S)—N-((6S)-5-Oxo-8-phenyl-2,3,5,6-tetrahydro[1,4]oxazino[2,3,4-jk][1,4]benzodiazepin-6-yl)-3-propyl-2-(3,3,3-trifluoropropyl)succinamide] showed an IC50 of 14.8 nM. Also, the “Antitumor Activity TALL1 (LCK)” value in the data set on TALL1 is listed as 0.7.

`CCc1nn(CCCN2CCN(c3cccc(Cl)c3)CC2)c(=O)n1CCOc1ccccc1` [Nefazodone]: the “Average Percent Remaining ± SD, Human” value in data set [1] worked out at 0.4 ± 0.4%. Also, the “Average Percent Remaining ± SD, Rat” value in data set [2] is on record as 0.7 ± 0.6%. Besides, the “Average Percent Remaining ± SD, Mouse” value in data set [3] is given as 0.4 ± 0.3%. In addition, in data set [4], the “Average Percent Remaining ± SD, Dog” value is 0.4 ± 0.4%. Further, the “Average Percent Remaining ± SD, Monkey” value in data set [5] came to 0.6 ± 0.5%.

The record behind these values is US9249157B2, “Tricyclic heterocycle compounds” (BRISTOL-MYERS SQUIBB COMPANY, priority 2012, dated 2016).
